The values that follow come from patent publication US12371428B2 (Exelixis, Inc., priority 2019, dated 2025).

Experiment [1] addresses Human MER (residues 528-999) (Homo sapiens (Human), UniProt Q12866). Nature of the experiment: Human Mer kinase assay, HTRF KinEase (Example C-2). The format is biochemical. The following applies: protocol of Example C-2. The essentials: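 HTRF KinEase TK assay with MER 528-999 (1 ng/well) in enzymatic buffer plus 5 mM MgCl2 and 1 mM DTT, biotinylated peptide substrate and ATP at Km (40 μM), 3% DMSO final, 60 min at room temperature. Stopped with EDTA detection mix (SA-XL665, TK antibody-Eu3+), read at 665/620 nm after 60 min; IC50 from 10-point 4-parameter fit, normalized to DMSO and 1 μM reference.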

Experiment [2] addresses Met (phospho-Met, HGF-stimulated PC-3 prostate cancer cells) (Homo sapiens (Human), UniProt P08581). Nature of the experiment: Met autophosphorylation ELISA in PC-3 cells (Example F). The format is cell-based. The following applies: cellular activity; Met autophosphorylation ELISA in PC-3 cells; read-out: c-Met IC50. In short, it runs like this:
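Compounds were tested on HGF-stimulated PC-3 cells. After 24 h culture and 3 h serum starvation, cells got compound for 1 h and 100 ng/mL HGF for 10 min, and Met tyrosine phosphorylation was measured by ELISA.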

The target of experiment [3] is Mer (phospho-Mer, MERTK-transfected 293A cells) (Homo sapiens (Human), UniProt Q12866). Nature of the experiment: Mer autophosphorylation ELISA in transient transfected 293A cells (Example H). Type of experiment: cell-based. The following applies: cellular activity; Mer autophosphorylation ELISA in transient transfected 293A cells. In short, it runs like this:
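Human MERTK transiently transfected into 293A cells; compounds as 8-point dose curve in serum-free medium (0.3% DMSO final), 1 h. Lysates assayed by phospho-Mer sandwich ELISA against phospho-Mer standard; DMSO = 100%, reference inhibitor = 0% activity; IC50 from 4-parameter logistic fit.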

For experiment [4], the target named is Human KDR (residues 790-1356) (Homo sapiens (Human), UniProt P35968). Nature of the experiment: Human KDR kinase assay, HTRF KinEase (Example B-2). The format is biochemical. The following applies: protocol of Example B-2. The essentials: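 Human KDR residues 790-1356 (0.1 ng/well) in buffer with 5 mM MgCl2, 1 mM MnCl2, 1 mM DTT, biotinylated peptide substrate, ATP at Km (4.0 μM), 3% DMSO, 10 compound concentrations; 40 min, room temperature. EDTA stop, streptavidin-XL665/Eu-TK antibody HTRF read 665/620 nm; 4-parameter IC50.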
Chain of Human KDR (residues 790-1356) (P35968 790-1356): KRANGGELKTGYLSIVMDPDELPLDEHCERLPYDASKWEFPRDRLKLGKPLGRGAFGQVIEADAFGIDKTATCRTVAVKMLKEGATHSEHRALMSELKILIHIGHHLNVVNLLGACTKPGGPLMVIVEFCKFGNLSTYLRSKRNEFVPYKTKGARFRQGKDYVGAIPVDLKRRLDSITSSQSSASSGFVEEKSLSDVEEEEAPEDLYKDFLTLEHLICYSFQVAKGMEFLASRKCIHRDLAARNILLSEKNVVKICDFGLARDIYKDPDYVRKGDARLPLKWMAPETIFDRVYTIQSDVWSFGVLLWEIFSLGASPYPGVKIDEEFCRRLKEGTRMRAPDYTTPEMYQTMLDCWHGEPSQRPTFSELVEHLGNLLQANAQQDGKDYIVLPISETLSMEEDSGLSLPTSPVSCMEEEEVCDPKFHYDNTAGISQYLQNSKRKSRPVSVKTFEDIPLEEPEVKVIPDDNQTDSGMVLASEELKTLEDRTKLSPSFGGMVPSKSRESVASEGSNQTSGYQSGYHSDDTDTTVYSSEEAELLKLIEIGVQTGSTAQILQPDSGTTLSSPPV

Structures are written as SMILES.

Chain of Human MER (residues 528-999) (Q12866 528-999): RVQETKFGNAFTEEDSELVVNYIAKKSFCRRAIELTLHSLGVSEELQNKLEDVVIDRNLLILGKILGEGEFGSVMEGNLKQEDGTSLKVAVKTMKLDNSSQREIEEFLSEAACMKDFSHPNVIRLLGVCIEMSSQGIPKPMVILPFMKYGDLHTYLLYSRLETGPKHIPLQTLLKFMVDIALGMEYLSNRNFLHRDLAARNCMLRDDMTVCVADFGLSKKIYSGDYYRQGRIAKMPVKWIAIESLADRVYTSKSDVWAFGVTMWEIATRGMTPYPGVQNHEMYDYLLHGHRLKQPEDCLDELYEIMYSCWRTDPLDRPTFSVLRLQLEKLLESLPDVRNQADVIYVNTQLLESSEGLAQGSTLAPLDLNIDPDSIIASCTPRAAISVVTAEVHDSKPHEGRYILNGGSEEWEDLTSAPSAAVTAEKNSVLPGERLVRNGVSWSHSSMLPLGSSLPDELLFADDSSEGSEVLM
Chain of Met (phospho-Met, HGF-stimulated PC-3 prostate cancer cells) (P08581 25-1390): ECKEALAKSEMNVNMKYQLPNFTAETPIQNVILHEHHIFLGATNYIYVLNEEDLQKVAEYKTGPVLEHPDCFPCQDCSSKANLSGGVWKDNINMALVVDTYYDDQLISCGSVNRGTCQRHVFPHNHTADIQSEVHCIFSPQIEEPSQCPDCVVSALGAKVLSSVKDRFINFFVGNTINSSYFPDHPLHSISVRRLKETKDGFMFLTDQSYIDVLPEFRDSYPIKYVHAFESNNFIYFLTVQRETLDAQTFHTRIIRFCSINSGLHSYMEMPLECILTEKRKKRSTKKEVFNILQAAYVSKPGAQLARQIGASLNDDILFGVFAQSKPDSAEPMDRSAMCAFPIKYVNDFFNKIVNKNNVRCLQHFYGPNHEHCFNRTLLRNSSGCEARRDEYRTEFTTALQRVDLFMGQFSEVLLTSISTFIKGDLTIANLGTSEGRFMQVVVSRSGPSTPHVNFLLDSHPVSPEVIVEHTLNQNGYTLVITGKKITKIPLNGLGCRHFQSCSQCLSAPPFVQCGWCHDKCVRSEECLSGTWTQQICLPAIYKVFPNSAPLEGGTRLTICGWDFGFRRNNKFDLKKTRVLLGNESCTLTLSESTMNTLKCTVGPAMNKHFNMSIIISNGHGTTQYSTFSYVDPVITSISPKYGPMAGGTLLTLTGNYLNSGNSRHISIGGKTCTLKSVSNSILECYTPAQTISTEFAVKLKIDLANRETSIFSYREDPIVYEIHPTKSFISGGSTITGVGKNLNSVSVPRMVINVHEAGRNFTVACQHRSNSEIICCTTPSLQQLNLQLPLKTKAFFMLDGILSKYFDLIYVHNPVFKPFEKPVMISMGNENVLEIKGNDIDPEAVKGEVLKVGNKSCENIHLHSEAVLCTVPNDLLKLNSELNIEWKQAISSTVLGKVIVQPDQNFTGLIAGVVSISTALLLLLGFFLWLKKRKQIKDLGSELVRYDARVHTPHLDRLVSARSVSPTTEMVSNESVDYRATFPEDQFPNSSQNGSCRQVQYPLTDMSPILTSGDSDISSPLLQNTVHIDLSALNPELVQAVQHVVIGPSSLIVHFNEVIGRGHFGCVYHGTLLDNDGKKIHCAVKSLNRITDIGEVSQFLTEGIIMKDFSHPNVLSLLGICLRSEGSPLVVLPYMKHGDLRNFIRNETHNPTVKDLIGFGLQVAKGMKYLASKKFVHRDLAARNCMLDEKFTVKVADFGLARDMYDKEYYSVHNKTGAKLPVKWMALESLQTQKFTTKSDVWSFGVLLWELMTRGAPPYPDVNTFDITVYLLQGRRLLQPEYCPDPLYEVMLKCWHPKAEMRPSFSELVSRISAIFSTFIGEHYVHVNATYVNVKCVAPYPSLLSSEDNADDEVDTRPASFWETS
Chain of Mer (phospho-Mer, MERTK-transfected 293A cells) (Q12866 21-999): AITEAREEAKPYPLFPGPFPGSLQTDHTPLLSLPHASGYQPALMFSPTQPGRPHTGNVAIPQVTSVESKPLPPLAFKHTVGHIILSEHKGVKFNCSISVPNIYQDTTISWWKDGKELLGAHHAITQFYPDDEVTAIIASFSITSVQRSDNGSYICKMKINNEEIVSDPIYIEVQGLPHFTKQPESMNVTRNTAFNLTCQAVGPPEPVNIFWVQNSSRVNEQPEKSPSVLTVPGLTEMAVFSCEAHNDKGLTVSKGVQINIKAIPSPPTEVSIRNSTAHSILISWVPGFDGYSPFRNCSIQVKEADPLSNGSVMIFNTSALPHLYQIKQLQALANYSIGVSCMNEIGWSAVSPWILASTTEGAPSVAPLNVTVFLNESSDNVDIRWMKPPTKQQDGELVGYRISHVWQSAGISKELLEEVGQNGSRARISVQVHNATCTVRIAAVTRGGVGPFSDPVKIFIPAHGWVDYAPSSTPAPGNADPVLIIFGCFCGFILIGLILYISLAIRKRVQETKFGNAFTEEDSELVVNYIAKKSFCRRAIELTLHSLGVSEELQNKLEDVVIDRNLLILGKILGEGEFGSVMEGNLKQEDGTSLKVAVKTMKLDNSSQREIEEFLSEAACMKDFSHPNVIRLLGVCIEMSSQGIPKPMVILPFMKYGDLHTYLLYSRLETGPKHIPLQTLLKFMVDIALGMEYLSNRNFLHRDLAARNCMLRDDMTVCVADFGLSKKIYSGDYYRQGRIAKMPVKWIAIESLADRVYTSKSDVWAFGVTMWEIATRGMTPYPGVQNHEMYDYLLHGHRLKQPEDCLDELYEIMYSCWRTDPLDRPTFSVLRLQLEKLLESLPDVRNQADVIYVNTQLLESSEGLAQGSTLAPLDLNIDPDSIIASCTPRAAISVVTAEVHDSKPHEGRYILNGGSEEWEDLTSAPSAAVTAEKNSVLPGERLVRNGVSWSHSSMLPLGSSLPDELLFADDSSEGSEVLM

Take `COc1cc2nccc(Oc3ccc(NC(=O)c4cn(C)cc(-c5ccc(F)cc5C)c4=O)cc3F)c2nc1OC` [Compound 503, N-[4-[(6,7-dimethoxy-1,5-naphthyridin-4-yl)oxy]-3-fluorophenyl]-5-(4-fluoro-2-methylphenyl)-1-methyl-4-oxopyridine-3-carboxamide]: the half-maximal inhibitory concentration (IC50) in experiment [1], in experiment [2], in experiment [3] and in experiment [4] was under 100 nM each time.

Turning to `CCc1ncc(C(=O)Nc2ccc(Oc3ccnc4cc(OC)c(OC)nc34)c(F)c2)c(O)c1-c1ccc(F)cc1` [Compound 504, N-[4-[(6,7-dimethoxy-1,5-naphthyridin-4-yl)oxy]-3-fluorophenyl]-6-ethyl-5-(4-fluorophenyl)-4-hydroxypyridine-3-carboxamide], the half-maximal inhibitory concentration (IC50) in experiment [1], in experiment [2], in experiment [3] and in experiment [4] was under 100 nM in each case.

On to `Cc1cc(F)ccc1-c1c(C)nc(C)c(C(=O)Nc2ccc(Oc3ccnc4cccnc34)c(F)c2)c1O` [Compound 505, 5-(4-fluoro-2-methylphenyl)-N-[3-fluoro-4-(1,5-naphthyridin-4-yloxy)phenyl]-4-hydroxy-2,6-dimethylpyridine-3-carboxamide], for which the IC50 in experiment [1] was 100 to 300 nM; in experiment [2], under 100 nM; in experiment [3], 100 to 300 nM; in experiment [4] it was over 300 nM.

Consider `Cc1ccc2nccc(Oc3ccc(NC(=O)c4c(C)nc(C)c(-c5ccc(F)cc5C)c4O)cc3F)c2n1` [Compound 506, N-[3-fluoro-4-[(6-methyl-1,5-naphthyridin-4-yl)oxy]phenyl]-5-(4-fluoro-2-methylphenyl)-4-hydroxy-2,6-dimethylpyridine-3-carboxamide], for which the IC50 in experiment [1] is under 100 nM; in experiment [2], under 100 nM; in experiment [3], under 100 nM; in experiment [4], over 300 nM.

Turning to `COc1cnc2c(Oc3ccc(NC(=O)c4c(C)n(C)c(C)c(-c5ccc(F)cc5)c4=O)cc3F)ccnc2c1` [Compound 508, N-[3-fluoro-4-[(7-methoxy-1,5-naphthyridin-4-yl)oxy]phenyl]-5-(4-fluorophenyl)-1,2,6-trimethyl-4-oxopyridine-3-carboxamide], the half-inhibitory concentration (IC50) is under 100 nM in experiment [1], under 100 nM in experiment [2], under 100 nM in experiment [3] and over 300 nM in experiment [4].

`CCc1nc(C)c(-c2ccc(F)cc2)c(O)c1C(=O)Nc1ccc(Oc2ccnc3ccc(OC)nc23)cc1` [Compound 509, 2-ethyl-5-(4-fluorophenyl)-4-hydroxy-N-[4-[(6-methoxy-1,5-naphthyridin-4-yl)oxy]phenyl]-6-methylpyridine-3-carboxamide]: the IC50 in experiment [1], in experiment [2], in experiment [3] and in experiment [4] was under 100 nM throughout.

For the compound `COCc1nc(C)c(-c2ccc(F)cc2)c(O)c1C(=O)Nc1ccc(Oc2ccnc3ccc(OC)nc23)cc1` [Compound 510, 5-(4-fluorophenyl)-4-hydroxy-2-(methoxymethyl)-N-[4-[(6-methoxy-1,5-naphthyridin-4-yl)oxy]phenyl]-6-methylpyridine-3-carboxamide], the IC50 in experiment [1] was under 100 nM; in experiment [2], under 100 nM; in experiment [3], under 100 nM; in experiment [4] it was 100 to 300 nM.

In the case of `COc1cc2nccc(Oc3ccc(NC(=O)c4c(C)n(C)c(C)c(-c5ccc(F)cc5)c4=O)cc3F)c2nc1OC` [Compound 511, N-[4-[(6,7-dimethoxy-1,5-naphthyridin-4-yl)oxy]-3-fluorophenyl]-5-(4-fluorophenyl)-1,2,6-trimethyl-4-oxopyridine-3-carboxamide], the IC50 is under 100 nM in experiment [1], under 100 nM in experiment [2], under 100 nM in experiment [3] and 100 to 300 nM in experiment [4].

`COc1cc2nccc(Oc3ccc(NC(=O)c4nn(C)c(C)c(-c5ccc(F)cc5C)c4=O)cc3F)c2nc1OC` [Compound 512, N-[4-[(6,7-dimethoxy-1,5-naphthyridin-4-yl)oxy]-3-fluorophenyl]-5-(4-fluoro-2-methylphenyl)-1,6-dimethyl-4-oxopyridazine-3-carboxamide]: the IC50 in experiment [1], in experiment [2], in experiment [3] and in experiment [4] was under 100 nM in each case.

With `COc1cnc2c(Oc3ccc(NC(=O)c4nn(C)c(C)c(-c5ccc(F)cc5C)c4=O)cc3F)ccnc2c1` [Compound 513, N-[3-fluoro-4-[(7-methoxy-1,5-naphthyridin-4-yl)oxy]phenyl]-5-(4-fluoro-2-methylphenyl)-1,6-dimethyl-4-oxopyridazine-3-carboxamide], the IC50 in experiment [1], in experiment [2], in experiment [3] and in experiment [4] was under 100 nM in each case.

Regarding `COc1cnc2c(Oc3ccc(NC(=O)c4nn(C)c(C)c(-c5ccc(F)cc5C)c4=O)cc3)ccnc2c1` [Compound 514, 5-(4-fluoro-2-methylphenyl)-N-[4-[(7-methoxy-1,5-naphthyridin-4-yl)oxy]phenyl]-1,6-dimethyl-4-oxopyridazine-3-carboxamide], the 50% inhibitory concentration (IC50) in experiment [1], in experiment [2], in experiment [3] and in experiment [4] was under 100 nM in each case.

Consider `COc1cnc2c(Oc3ccc(NC(=O)c4nnc(C)c(-c5ccc(F)cc5)c4OC)cc3)ccnc2c1` [Compound 515, 5-(4-fluorophenyl)-4-methoxy-N-[4-[(7-methoxy-1,5-naphthyridin-4-yl)oxy]phenyl]-6-methylpyridazine-3-carboxamide], for which the IC50 in experiment [1], in experiment [2], in experiment [3] and in experiment [4] was under 100 nM throughout.

For the compound `COCc1nc(C)c(-c2ccc(F)cc2C)c(O)c1C(=O)Nc1ccc(Oc2ccnc3ccc(OC)nc23)cc1` [Compound 516, 5-(4-fluoro-2-methylphenyl)-4-hydroxy-2-(methoxymethyl)-N-[4-[(6-methoxy-1,5-naphthyridin-4-yl)oxy]phenyl]-6-methylpyridine-3-carboxamide], the IC50 in experiment [1] was under 100 nM; in experiment [2], under 100 nM; in experiment [3], under 100 nM; in experiment [4], over 300 nM.

`COc1cc2nccc(Oc3ccc(NC(=O)c4nn(C)c(C)c(-c5ccc(F)cc5C)c4=O)cc3)c2nc1OC` [Compound 517, N-[4-[(6,7-dimethoxy-1,5-naphthyridin-4-yl)oxy]phenyl]-5-(4-fluoro-2-methylphenyl)-1,6-dimethyl-4-oxopyridazine-3-carboxamide]: the IC50 in experiment [1], in experiment [2], in experiment [3] and in experiment [4] was under 100 nM in each case.

For the compound `COc1cc2nccc(Oc3ccc(NC(=O)c4c(C)nc(C)c(-c5ccc(F)cc5CO)c4O)cc3F)c2nc1OC` [Compound 518, N-[4-[(6,7-dimethoxy-1,5-naphthyridin-4-yl)oxy]-3-fluorophenyl]-5-[4-fluoro-2-(hydroxymethyl]phenyl]-4-hydroxy-2,6-dimethylpyridine-3-carboxamide], the half-inhibitory concentration (IC50) in experiment [1], in experiment [2], in experiment [3] and in experiment [4] was under 100 nM each time.

With `COc1cc2nccc(Oc3ccc(NC(=O)c4cc(C)nn(-c5ccc(F)cc5)c4=O)cc3F)c2nc1OC` [Compound 519, N-[4-[(6,7-dimethoxy-1,5-naphthyridin-4-yl)oxy]-3-fluorophenyl]-2-(4-fluorophenyl)-6-methyl-3-oxopyridazine-4-carboxamide], the IC50 is under 100 nM in experiment [1], under 100 nM in experiment [2], under 100 nM in experiment [3] and over 300 nM in experiment [4].

As to `COc1cc2nccc(Oc3ccc(NC(=O)c4cc(C)nn(-c5ccc(F)cc5)c4=O)cc3)c2nc1OC` [Compound 520, N-[4-[(6,7-dimethoxy-1,5-naphthyridin-4-yl)oxy]phenyl]-2-(4-fluorophenyl)-6-methyl-3-oxopyridazine-4-carboxamide], the IC50 in experiment [1] was under 100 nM; in experiment [2], under 100 nM; in experiment [3] it was under 100 nM; in experiment [4] it was over 300 nM.

For the compound `COc1cnc2c(Oc3ccc(NC(=O)c4cc(C)nn(-c5ccc(F)cc5)c4=O)cc3F)ccnc2c1` [Compound 521, N-[3-fluoro-4-[(7-methoxy-1,5-naphthyridin-4-yl)oxy]phenyl]-2-(4-fluorophenyl)-6-methyl-3-oxopyridazine-4-carboxamide], the IC50 in experiment [1] is under 100 nM; in experiment [2] it was 100 to 300 nM; in experiment [3] it was over 300 nM; in experiment [4], over 300 nM.
